Values joined by “and” are separate entries in the source; they are usually repeats but may differ in a detail not shown here. Equal entries are not always repeated. Where two headings read alike, the source gives them in different places.
Key:
[1] = plasma protein binding; format: in vitro ADME
Protocol: The protein binding of each compound was determined in plasma via equilibrium dialysis employing RED Plates (ThermoFisher Scientific, Rochester, NY). Plasma was added to the 96 well plate containing test compound and mixed thoroughly for a final concentration of 5 μM. Subsequently, an aliquot of the plasma-compound mixture was transferred to the cis chamber (red) of the RED plate, with an phosphate buffer (25 mM, pH 7.4) in the trans chamber. The RED plate was sealed and incubated for 4 h at 37 °C with shaking. At completion, aliquots from each chamber were diluted 1:1 with either plasma (cis) or buffer (trans) and transferred to a new 96 well plate, at which time ice-cold acetonitrile containing internal standard (50 ng/mL carbamazepine) (2 volumes) was added to extract the matrices. The plate was centrifuged (3000 rcf, 10 min) and supernatants transferred and diluted 1:1 (supernatant: water) into a new 96 well plate, which was then sealed in preparation for LC/MS/MS analysis. Each compound was assayed in triplicate within the same 96-well plate. Fraction unbound was determined using the following equation [drawing 1]

[2] = tested on: TNF-alpha; test: Eurofins radioligand binding panel; set-up: species or system human; conditions: agonist radioligand
Excerpt: (§1) Table S1. Eurofins Lead Profiling Screen Data
(§2) This is a radioligand binding panel of 80 targets including GPCRs, ion channels, transporters and nuclear hormones. Biochemical assay results are presented as the percent inhibition of specific […]
(§3) Results showing an inhibition or stimulation higher than 50% are considered to represent significant effect and are highlighted

[3] = tested on: sigma (non-selective); test: Eurofins radioligand binding panel; set-up: species or system human; conditions: agonist radioligand
Excerpt: as §1, §2, §3

[4] = tested on: C57Bl/6 mice; test: amphetamine-induced hyperlocomotion (mouse); format: in vivo
Protocol: In parallel with the rat AHL study, we carried out a mouse AHL study to determine if the PK/PD relationship would remain intact across rodent species. Here, amphetamine was dosed to C57Bl/6 mice at 3 mg/kg s.c. to achieve ∼800 beam breaks, followed by the oral administration of 19d at 3, 10, and 30 mg/kg (Figure 8). […] Thus, mGlu1 has sufficient target coverage and PK/PD^24 is established for this paradigm in mouse and agree well with the PK/PD relationship established in rat for both NOR and AHL wherein free brain concentrations at or above the in vitro EC50 facilitates a significant pharmacodynamic response.
Figure 8 Mouse amphetamine-induced hyperlocomotion and reversal by VU6024578 (19d). Amphetamine (3.0 mg/kg s.c.) induced robust hyperlocomotion, which was dose-dependently reversed by oral administration (0.5% Natrasol/0.015% tween 80 in H2O) of 19d. TEXT PRINTED IN THE PICTURE: VU6024578-09: Mean % reversal: -7.7 ± 32.6 (3 mg/kg i.p. + Amphetamine 3 mg/kg s.c.); Mean % reversal: 84.2 ± 10.2 (10 mg/kg i.p. + Amphetamine 3 mg/kg s.c.); Mean % reversal: 90.0 ± 12.7 (30 mg/kg i.p. + Amphetamine 3 mg/kg s.c.)
Adult male C57/bl6 mice are placed in the activity chambers (Med Associates) to habituate. 90 min later the mice were administered VU6024578 (3–30 mg/kg i.p. Ten ml/kg) or vehicle (0.5% natrasol/0.015% Tween 80) and placed back in the activity chambers. Thirty minutes later the animals were administered Amphetamine (3 mg/kg) and placed back in the activity chambers for 1 h. The data for the studies were analyzed by a between-group 2 way analysis of variance for compound dose and time. Total ambulation from 125 to 180 min was analyzed by one-way ANOVA. Each dose group was compared with the vehicle control group. The calculations were performed and graphed using GraphPad Prism (version 4.03, GraphPad, La Jolla, CA).

[5] = target: hERG (Homo sapiens, UniProt Q12809); test: hERG manual patch clamp assay; format: cell-based
hERG, sequence (Q12809 whole entry): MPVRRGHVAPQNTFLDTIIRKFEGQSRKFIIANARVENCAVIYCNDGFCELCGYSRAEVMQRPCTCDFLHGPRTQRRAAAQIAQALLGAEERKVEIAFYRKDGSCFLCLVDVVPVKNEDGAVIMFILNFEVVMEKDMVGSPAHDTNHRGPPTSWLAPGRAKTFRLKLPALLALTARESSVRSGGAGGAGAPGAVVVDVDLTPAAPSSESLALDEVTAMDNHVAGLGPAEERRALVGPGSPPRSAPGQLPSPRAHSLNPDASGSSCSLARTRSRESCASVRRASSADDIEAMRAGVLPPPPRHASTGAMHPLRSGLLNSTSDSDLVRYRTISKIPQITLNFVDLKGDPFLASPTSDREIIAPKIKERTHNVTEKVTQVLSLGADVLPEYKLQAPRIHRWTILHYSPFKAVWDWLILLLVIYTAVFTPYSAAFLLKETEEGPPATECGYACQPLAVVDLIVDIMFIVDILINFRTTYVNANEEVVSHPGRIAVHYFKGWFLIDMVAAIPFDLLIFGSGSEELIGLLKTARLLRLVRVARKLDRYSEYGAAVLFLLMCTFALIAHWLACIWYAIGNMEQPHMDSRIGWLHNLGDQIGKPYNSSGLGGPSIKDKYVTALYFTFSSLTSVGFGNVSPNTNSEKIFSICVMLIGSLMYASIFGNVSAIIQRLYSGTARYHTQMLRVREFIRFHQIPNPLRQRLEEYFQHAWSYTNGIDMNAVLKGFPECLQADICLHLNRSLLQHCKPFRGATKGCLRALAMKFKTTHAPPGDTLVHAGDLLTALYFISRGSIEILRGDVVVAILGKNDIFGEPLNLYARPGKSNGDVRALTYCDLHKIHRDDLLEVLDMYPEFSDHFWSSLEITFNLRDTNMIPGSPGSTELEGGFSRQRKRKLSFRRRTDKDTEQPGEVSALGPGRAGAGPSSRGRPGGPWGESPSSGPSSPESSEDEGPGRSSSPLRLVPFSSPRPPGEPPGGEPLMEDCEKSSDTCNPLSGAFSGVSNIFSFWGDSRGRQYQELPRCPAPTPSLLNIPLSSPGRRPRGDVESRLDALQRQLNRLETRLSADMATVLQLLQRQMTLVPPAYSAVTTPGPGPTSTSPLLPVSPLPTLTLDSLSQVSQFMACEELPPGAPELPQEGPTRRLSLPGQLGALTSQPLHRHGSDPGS

[6] = tested on: human mGlu2–5,7,8; test: mGlu subtype selectivity; format: cell-based
Protocol: (§4) Over the course of the mGlu1 PAM program, 19d became an assay standard and was assayed multiple times, affording refined potency values.[20]

[7] = tested on: rat mGlu2–5,7,8; test: mGlu subtype selectivity; format: cell-based; conditions: inactive
Protocol: as §4

[8] = target: T1, CCK2 (CCKB) (Homo sapiens, UniProt P32239); test: Eurofins radioligand binding panel; conditions: agonist radioligand
T1 construct: Eurofins (panel run as a service)
T1 sequence (P32239 whole entry): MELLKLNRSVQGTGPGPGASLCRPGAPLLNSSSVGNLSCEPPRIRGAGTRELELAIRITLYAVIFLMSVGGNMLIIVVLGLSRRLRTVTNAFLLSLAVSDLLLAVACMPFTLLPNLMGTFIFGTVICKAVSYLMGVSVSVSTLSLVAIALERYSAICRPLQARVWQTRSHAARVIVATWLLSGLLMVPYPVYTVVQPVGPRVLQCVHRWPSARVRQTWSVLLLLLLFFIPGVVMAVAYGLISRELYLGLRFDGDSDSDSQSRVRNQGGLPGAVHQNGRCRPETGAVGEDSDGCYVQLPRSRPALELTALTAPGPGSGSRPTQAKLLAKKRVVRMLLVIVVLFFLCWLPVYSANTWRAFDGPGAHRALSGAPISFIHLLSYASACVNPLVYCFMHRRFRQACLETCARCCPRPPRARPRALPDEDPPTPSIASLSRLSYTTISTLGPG
Excerpt: as §1, §2
Results showing an inhibition or stimulation higher than 50% are considered to represent significant effect and are highlighted […]
Target / Protein Species % Inhibition at 10 […]
CCK2 (CCKB) (agonist radioligand) human -4

[9] = intrinsic clearance, predicted hepatic clearance; format: in vitro ADME, rat; conditions: in vitro predicted hepatic clearance
Protocol: Human or rat hepatic microsomes (0.5 mg/mL) and 1 μM test compound were incubated in 100 mM potassium phosphate pH 7.4 buffer with 3 mM MgCl2 at 37 °C with constant shaking. After a 5 min preincubation, the reaction was initiated by addition of NADPH (1 mM). At selected time intervals (0, 3, 7, 15, 25, and 45 min), aliquots were taken and subsequently placed into a 96-well plate containing cold acetonitrile with internal standard (50 ng/mL carbamazepine). Plates were then centrifuged at 3000 rcf (4 °C) for 10 min, and the supernatant was transferred to a separate 96-well plate and diluted 1:1 with water for LC/MS/MS analysis. The in vitro half-life (T1/2, min, eq 1), intrinsic clearance (CLint, mL/min/kg, eq 2) and subsequent predicted hepatic clearance (CLhep, mL/min/kg, eq 3) was determined employing the following equations: [drawing 2] 1 where k represents the slope from linear regression analysis of the natural log percent remaining of test compound as a function of incubation time [drawing 3] 2
^ascale-up factors: of 20 (human) or 45 (rat) [drawing 4] 3 where Qh (hepatic blood flow, mL/min/kg) is 21 (human) or 70 (rat).

Cn1nc(-c2ccnn2C)cc1CNC(=O)c1cc(-c2ccco2)ccc1Cl [Compound 19d, 2-Chloro-N-((1,2′-dimethyl-1H,2’H-[3,3′-bipyrazol]-5-yl)methyl)-5-(furan-2-yl)benzamide]
fraction unbound at 4 h, 5 μM ([1]; cynomolgus monkey, pH 7.4, read-out: fu (plasma), cyno): 0.025
fraction unbound at 4 h, 5 μM ([1]; dog, pH 7.4, read-out: fu (plasma), dog): 0.039
fraction unbound at 4 h, 5 μM ([1]; mouse, pH 7.4, read-out: fu (plasma), mouse): 0.056
% Inhibition at 10 µM [2]: 2%
% Inhibition at 10 µM [3]: -11%
reversal of AHL, in words ([4]; 3 mg/kg): no reversal
Mean % reversal of AHL ([4]; 3 mg/kg i.p.): -7.7 ± 32.6%
reversal of AHL, in words ([4]; 10 mg/kg): Full reversal
Mean % reversal of AHL ([4]; 10 mg/kg i.p.): 84.2 ± 10.2%
reversal of AHL, in words ([4]; 30 mg/kg): Full reversal
Mean % reversal of AHL ([4]; 30 mg/kg i.p.): 90.0 ± 12.7%
IC50 [5]: > 10 µM
activity against human mGlu2–5,7,8 ([6]; inactive): > 30 µM
activity on mGlu2–5,7,8, in words ([6]; species not given): inactive
activity against rat mGlu2–5,7,8 [7]: > 30 µM
inhibition at 10 µM [8]: -4%
CLhep, rat [9]: 2.34 L/h/kg and 2.36 L/h/kg
